Measurements from patent US20110015226A1, “Treatment of Energy Utilization Disease” (SUMMIT CORPORATION PLC, priority 2008, published 2011).
pIC50: −log10 of the molar value.

Tests used:
Type in all cases: biochemical
[1] = target: T1, α-D-galactosidase Green coffee bean (Coffea arabica, UniProt Q42656); assay: Glycosidase inhibition: α-D-galactosidase Green coffee bean; settings: compounds tested at 0.8 mM
T1 construct: α-D-galactosidase (Green coffee beans); purchased Sigma; host or cells: green coffee beans
Text: (§1) The results tabulated below were obtained using commercially available glycosidases and p-nitrophenyl-substrates using standard methods described for example by Watson et al (1997) Phytochemistry 46 255-259. All enzymes and substrates were bought from Sigma. Enzyme and substrate solutions were made using sodium phosphate buffers at the pH optima values. The enzymes used were α-D-glucosidase Saccharomyces cerevisiae, Bacillus stearothermophilus, Oryzae sativa), β-D-glucosidase (Almond), α-D-mannosidase (Jack bean), α-D-galactosidase (Green coffee beans), β-D-galactosidase (Bovine liver), α-L-fucosidase (Bovine kidney), N-acetyl-β-D-glucosaminidase (Bovine kidney, Jack bean, Aspergillus oryzae), Naringinase (Penicillium decumbens) and amyloglucosidase (Aspergillus niger). All enzymes were used with the appropriate p-nitrophenyl substrates (5 mM). Amyloglucosidase activity was measured using amylopectin (0.1%) (Merck) mixed with sodium phosphate buffer, pH 4.5 in a glass bottle, and healed in a boiling water bath for 20 minutes to dissolve with released glucose measured using ‘Trinder’ glucose detection solution (Sigma).
(§2) All enzymes and para-nitrophenyl substrates were purchased from Sigma, with the exception of beta-mannosidase which came from Megazyme. Enzymes were assayed at 27° C. in 0.1M citric acid/0.2M disodium hydrogen phosphate buffers at the optimum pH for the enzyme. The incubation mixture consisted of 10 μl enzyme solution, 10 μl of 1 mg/ml aqueous solution of extract and 50 μl of the appropriate 5 mM para-nitrophenyl substrate made up in buffer at the optimum pH for the enzyme. The reactions were stopped by addition of 70 μl 0.4M glycine (pH 10.4) during the exponential phase of the reaction, which had been determined at the beginning using uninhibited assays in which water replaced inhibitor. Final absorbances were read at 405 nm using a Versamax microplate reader (Molecular Devices). Assays were carried out in triplicate, and the values given are means of the three replicates per assay. (See Watson, A. A., Nash, R. J., Wormald, M. R., Harvey, D. J., Dealler, S., Lees, E., Asano, N., Kizu, H., Kato, A., Griffiths, R. C., Cairns, A. J. and Fleet, G. W. J. (1997). Glycosidase-inhibiting pyrrolidine alkaloids from Hyacinthoides non-scripta. Phytochemistry 46 (2): 255-259.)

[2] = target: T2, N-acetyl-β-D-glucosaminidase (A. oryzae) (Aspergillus oryzae, UniProt Q8J2T0); assay: Glycosidase inhibition: N-acetyl-β-D-glucosaminidase (A. oryzae); settings: compounds tested at 0.8 mM
T2 construct: purchased Sigma
Text: as §1, §2

[3] = target: T3, α-D-mannosidase Jack bean (Canavalia ensiformis, UniProt C0HJB3); assay: Glycosidase inhibition: α-D-mannosidase Jack bean; settings: compounds tested at 0.8 mM
T3 construct: α-D-mannosidase (Jack bean); purchased Sigma
T3 sequence (C0HJB3 1-981): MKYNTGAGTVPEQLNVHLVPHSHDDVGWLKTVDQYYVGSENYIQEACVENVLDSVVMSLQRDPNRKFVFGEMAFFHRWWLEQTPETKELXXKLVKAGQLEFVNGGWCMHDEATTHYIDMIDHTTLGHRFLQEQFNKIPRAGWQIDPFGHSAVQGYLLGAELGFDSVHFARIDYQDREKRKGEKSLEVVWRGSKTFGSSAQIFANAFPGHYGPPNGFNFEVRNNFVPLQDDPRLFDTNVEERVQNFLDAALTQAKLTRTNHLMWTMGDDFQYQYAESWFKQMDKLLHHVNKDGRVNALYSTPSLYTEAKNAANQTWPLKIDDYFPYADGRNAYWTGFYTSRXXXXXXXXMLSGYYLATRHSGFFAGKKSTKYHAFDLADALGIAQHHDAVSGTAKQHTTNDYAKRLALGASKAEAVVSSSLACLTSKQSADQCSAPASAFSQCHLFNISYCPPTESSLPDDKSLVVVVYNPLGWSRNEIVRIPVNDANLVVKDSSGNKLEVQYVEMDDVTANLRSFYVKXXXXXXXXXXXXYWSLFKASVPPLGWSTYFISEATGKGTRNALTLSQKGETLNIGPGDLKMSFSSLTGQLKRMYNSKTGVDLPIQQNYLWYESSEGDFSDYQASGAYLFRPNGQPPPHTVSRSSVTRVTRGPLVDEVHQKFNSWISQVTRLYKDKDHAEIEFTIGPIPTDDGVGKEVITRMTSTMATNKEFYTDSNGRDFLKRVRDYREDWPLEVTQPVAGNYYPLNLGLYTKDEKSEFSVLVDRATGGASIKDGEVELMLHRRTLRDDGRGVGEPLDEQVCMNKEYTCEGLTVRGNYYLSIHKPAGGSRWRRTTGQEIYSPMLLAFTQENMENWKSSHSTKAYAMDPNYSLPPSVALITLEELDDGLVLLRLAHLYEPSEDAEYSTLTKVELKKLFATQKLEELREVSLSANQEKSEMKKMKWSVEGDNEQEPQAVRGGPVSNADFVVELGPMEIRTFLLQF

α-D-glucosidase (Yeast) = target: T4, α-D-glucosidase (Yeast) (Saccharomyces cerevisiae, UniProt P53341); assay: Glycosidase inhibition: α-D-glucosidase (Yeast); settings: compounds tested at 0.8 mM
T4 construct: purchased Sigma
Text: as §1, §2

[4] = test system: N-acetyl-β-D-glucosaminidase (Bovine kidney); assay: Glycosidase inhibition: N-acetyl-β-D-glucosaminidase (Bovine kidney);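 also: enzyme activity followed by cleavage of the matching p-nitrophenyl glycoside (5 mM) in phosphate buffer set to the enzyme's optimal pH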
[5] = target: T5, α-L-fucosidase Bovine kidney (Bos taurus, UniProt Q2KIM0); assay: Glycosidase inhibition: α-L-fucosidase Bovine kidney; settings: compounds tested at 0.8 mM
T5 construct: α-L-fucosidase (Bovine kidney); purchased Sigma; host or cells: bovine kidney
T5 sequence (Q2KIM0 23-468): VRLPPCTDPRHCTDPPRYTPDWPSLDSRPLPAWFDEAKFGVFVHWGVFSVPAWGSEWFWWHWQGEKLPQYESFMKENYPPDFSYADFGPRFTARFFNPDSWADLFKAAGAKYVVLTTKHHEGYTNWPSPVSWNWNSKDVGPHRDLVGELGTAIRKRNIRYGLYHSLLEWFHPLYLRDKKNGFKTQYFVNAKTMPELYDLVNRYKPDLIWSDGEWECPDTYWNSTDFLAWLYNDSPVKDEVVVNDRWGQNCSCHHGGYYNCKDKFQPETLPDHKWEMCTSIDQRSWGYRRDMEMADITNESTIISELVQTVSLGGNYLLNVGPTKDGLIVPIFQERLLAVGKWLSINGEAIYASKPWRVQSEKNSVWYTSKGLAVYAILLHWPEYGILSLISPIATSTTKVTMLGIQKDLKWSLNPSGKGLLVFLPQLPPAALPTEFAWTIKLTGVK

[6] = target: α-D-glucosidase (Bacillus) (Geobacillus stearothermophilus, UniProt A0ACH1E9U3); assay: Glycosidase inhibition: α-D-glucosidase (Bacillus); settings: compounds tested at 0.8 mM
Text: as §1, §2

[7] = target: T6, β-Glucuronidase Bovine liver (Bos taurus, UniProt A3KMY8); assay: Glycosidase inhibition: β-Glucuronidase Bovine liver; settings: read-out: IC50 against mammalian glucuronidase;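 also: bovine liver β-glucuronidase acting on p-nitrophenyl β-D-glucuronide substrate in citric acid/disodium hydrogen phosphate buffer, pH 5.0, 27 °C, mean of triplicate runs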
T6 construct: The assay involved the use of Bovine liver β-glucuronidase; purchased Sigma; host or cells: bovine liver
T6 sequence (A3KMY8 1-652): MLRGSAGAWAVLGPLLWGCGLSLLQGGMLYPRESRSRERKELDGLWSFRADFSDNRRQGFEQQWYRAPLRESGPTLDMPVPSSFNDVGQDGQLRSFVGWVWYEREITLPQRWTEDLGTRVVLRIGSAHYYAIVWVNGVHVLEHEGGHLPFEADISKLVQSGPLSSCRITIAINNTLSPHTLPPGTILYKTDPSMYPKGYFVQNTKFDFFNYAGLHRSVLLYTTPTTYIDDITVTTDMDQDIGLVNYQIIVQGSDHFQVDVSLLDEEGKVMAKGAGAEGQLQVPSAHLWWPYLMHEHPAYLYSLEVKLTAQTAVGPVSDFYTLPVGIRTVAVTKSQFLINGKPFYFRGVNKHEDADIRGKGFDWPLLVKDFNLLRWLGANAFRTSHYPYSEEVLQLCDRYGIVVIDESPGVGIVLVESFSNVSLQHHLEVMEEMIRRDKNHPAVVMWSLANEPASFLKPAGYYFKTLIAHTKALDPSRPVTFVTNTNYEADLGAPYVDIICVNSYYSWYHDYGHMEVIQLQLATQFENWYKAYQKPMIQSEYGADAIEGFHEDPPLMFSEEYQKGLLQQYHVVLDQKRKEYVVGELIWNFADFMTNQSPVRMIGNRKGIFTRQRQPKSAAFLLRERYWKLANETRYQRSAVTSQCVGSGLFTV

α-D-glucosidase (Rice) = target: T7, α-D-glucosidase (Rice) (Oryza sativa subsp. japonica, UniProt Q653V7); assay: Glycosidase inhibition: α-D-glucosidase (Rice)
T7 construct: purchased Sigma

[8] = target: T8, Amyloglucosidase Aspergillus niger (Aspergillus niger, UniProt P69328); assay: Glycosidase inhibition: Amyloglucosidase Aspergillus niger; settings: compounds tested at 0.8 mM
T8 construct: purchased Sigma
Text: as §1, §2

[9] = target: T9, rabbit intestinal sucrase (Oryctolagus cuniculus, UniProt P07768); assay: Rabbit disaccharidase inhibition assay: sucrase; settings: NI: no inhibition at 0.8 mM
T9 construct: The small intestine was dissected out of a female wild rabbit; from tissue; host or cells: small-intestinal mucosa of a female wild rabbit
Protocol: (§3) Sucrose (8.3 mM), maltose (5 mM) and isomaltose (6.3 mM) substrates were made using 0.2 M Macllvaine (citrate-phosphate) buffer, pH 6.0. The glucose detection reagent was prepared according to the supplier's instructions (Megazyme Ltd). Linearity of the timecourse of the reaction between the glucose detection reagent and glucose was tested using a series of glucose dilutions.
(§4) The method for preparation of mammalian small intestine mucosal disaccharidases was based on Griffiths (1998), omitting ammonium sulphate fractionation steps. The small intestine was dissected out of a female wild rabbit, and opened longitudinally using a scalpel. The mucosal layer was scraped off using the edge of a clean microscope slide, and placed into 3 ml of dH2O. The mucosal layer suspension was centrifuged at around 1000 rpm for 30 seconds to sediment tissue debris. The supernatant ([…]) was removed, and centrifuged again at 3500 rcf for 1 minute to remove fine particulates from suspension. The supernatant was diluted to give 0.2-0.25 mg/ml protein and stored at −30° C.
(§5) Enzyme assays were carried out using 5-15 μl of enzyme preparation, 5 μl of test compound (or dH2O for controls) and 15-25 μl of substrate solution. Reactions were covered using a sheet of plate sealing film, and incubated at 37° C. for 60 minutes. Glucose (from disaccharide hydrolysis) was quantified by adding 200 μl of glucose detection reagent and incubating the reactions for a further twenty-five minutes. Absorbance was measured at 510 nm against control blanks.

[10] = target: rabbit intestinal maltase; assay: Rabbit disaccharidase inhibition assay: maltase; settings: NI: no inhibition at 0.8 mM
Protocol: as §3, §4, §5

[11] = target: T10, rabbit intestinal isomaltase (Oryctolagus cuniculus, UniProt P07768); assay: Rabbit disaccharidase inhibition assay: isomaltase; settings: NI: no inhibition at 0.8 mM
T10 construct: The small intestine was dissected out of a female wild rabbit; from tissue; host or cells: small-intestinal mucosa of a female wild rabbit
Protocol: as §3, §4, §5

T7 sequence (Q653V7 34-885): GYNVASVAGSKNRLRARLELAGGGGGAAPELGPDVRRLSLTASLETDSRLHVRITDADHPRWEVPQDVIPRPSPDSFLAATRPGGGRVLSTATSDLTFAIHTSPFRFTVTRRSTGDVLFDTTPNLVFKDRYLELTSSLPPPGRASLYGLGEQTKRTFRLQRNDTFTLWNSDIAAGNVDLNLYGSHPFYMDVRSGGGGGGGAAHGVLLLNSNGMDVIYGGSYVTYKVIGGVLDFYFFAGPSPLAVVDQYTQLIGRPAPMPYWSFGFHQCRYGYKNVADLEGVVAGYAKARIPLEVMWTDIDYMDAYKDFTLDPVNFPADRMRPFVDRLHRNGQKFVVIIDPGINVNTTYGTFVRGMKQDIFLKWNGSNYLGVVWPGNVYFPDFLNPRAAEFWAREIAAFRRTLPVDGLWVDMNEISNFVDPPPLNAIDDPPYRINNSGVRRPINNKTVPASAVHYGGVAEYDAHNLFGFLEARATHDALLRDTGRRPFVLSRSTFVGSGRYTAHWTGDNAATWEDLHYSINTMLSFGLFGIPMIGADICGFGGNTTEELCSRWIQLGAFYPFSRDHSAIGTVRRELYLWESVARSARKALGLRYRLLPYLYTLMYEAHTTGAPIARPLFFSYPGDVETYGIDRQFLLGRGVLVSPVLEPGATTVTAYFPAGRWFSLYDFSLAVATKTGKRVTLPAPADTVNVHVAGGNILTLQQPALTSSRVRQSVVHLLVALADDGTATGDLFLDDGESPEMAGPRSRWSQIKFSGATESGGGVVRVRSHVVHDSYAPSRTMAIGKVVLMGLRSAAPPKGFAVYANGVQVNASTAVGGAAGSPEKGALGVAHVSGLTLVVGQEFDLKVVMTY
T9 sequence (P07768 whole entry): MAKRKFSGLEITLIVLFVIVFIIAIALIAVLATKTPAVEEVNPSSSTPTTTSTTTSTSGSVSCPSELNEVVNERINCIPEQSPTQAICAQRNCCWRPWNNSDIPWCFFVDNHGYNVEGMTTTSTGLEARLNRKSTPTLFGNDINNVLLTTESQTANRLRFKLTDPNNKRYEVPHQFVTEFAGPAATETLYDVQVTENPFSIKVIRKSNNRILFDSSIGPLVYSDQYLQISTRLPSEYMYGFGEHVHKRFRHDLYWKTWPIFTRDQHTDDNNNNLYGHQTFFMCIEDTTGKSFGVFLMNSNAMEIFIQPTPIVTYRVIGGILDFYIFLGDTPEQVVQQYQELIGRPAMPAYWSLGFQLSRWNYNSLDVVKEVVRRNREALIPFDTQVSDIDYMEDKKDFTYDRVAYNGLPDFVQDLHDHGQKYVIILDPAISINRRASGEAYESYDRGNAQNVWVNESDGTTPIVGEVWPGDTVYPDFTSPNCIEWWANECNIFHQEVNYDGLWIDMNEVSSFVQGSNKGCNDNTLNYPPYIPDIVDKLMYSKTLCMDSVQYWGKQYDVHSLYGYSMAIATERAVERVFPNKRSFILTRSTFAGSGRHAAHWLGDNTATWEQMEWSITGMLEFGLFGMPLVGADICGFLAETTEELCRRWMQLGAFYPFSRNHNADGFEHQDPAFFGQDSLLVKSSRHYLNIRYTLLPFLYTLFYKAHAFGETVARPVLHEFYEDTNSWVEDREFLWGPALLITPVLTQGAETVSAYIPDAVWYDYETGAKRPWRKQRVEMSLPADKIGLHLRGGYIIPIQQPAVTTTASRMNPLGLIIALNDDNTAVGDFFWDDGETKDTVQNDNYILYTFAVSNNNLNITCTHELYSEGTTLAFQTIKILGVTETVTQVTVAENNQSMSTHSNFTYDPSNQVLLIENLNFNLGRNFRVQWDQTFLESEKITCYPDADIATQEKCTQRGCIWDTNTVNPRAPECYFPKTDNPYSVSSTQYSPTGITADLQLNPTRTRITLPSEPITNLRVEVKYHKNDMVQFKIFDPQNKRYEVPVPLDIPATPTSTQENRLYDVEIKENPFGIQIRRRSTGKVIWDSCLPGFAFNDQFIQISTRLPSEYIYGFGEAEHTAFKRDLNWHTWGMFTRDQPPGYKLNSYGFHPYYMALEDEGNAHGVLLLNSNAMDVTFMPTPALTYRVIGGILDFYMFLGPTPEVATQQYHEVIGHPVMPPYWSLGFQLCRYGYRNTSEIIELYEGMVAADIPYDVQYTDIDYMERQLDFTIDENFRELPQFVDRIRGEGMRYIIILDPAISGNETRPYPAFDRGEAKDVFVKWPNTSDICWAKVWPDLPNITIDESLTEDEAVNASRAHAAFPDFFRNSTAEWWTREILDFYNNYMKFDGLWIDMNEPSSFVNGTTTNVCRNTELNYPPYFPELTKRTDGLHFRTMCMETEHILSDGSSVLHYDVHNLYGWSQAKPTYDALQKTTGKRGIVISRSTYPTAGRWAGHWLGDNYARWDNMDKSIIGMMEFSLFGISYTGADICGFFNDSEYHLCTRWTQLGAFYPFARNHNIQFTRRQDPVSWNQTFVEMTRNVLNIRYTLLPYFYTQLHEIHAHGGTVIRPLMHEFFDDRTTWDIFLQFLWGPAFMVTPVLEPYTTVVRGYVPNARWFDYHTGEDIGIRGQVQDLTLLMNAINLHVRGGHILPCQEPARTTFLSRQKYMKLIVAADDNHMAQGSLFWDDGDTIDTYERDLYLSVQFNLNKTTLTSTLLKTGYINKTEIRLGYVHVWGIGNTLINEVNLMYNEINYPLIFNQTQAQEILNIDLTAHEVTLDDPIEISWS
T10 sequence (P07768 whole entry): as above
T2 sequence (Q8J2T0 97-600): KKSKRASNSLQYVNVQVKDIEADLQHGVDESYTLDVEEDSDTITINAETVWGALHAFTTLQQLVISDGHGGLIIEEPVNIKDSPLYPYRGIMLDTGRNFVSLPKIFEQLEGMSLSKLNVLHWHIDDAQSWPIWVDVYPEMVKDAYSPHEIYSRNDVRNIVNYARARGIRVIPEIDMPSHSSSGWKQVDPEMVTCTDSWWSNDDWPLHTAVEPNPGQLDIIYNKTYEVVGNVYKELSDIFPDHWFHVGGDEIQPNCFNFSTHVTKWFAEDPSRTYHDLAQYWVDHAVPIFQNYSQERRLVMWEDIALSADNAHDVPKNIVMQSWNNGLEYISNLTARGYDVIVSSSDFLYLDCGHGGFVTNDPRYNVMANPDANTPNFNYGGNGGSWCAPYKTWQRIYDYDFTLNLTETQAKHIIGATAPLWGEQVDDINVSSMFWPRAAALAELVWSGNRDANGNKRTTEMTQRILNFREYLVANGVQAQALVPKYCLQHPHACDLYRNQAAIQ
α-D-glucosidase (Bacillus), sequence (A0ACH1E9U3 entry or part of it): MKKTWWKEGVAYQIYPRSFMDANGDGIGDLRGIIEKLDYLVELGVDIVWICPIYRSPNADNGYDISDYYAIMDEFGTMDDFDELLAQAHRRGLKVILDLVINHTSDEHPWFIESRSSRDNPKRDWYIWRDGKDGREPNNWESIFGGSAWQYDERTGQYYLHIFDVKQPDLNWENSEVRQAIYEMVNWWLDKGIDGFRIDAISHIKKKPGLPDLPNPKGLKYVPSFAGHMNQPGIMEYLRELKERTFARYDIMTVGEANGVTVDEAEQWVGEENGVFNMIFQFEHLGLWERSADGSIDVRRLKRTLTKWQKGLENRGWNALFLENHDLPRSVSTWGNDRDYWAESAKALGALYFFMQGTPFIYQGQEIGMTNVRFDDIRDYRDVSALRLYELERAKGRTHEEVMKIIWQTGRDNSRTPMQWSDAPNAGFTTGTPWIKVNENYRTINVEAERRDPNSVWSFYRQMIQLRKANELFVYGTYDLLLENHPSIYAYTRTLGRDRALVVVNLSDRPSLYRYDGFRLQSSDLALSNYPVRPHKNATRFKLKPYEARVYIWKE
T8 sequence (P69328 25-640): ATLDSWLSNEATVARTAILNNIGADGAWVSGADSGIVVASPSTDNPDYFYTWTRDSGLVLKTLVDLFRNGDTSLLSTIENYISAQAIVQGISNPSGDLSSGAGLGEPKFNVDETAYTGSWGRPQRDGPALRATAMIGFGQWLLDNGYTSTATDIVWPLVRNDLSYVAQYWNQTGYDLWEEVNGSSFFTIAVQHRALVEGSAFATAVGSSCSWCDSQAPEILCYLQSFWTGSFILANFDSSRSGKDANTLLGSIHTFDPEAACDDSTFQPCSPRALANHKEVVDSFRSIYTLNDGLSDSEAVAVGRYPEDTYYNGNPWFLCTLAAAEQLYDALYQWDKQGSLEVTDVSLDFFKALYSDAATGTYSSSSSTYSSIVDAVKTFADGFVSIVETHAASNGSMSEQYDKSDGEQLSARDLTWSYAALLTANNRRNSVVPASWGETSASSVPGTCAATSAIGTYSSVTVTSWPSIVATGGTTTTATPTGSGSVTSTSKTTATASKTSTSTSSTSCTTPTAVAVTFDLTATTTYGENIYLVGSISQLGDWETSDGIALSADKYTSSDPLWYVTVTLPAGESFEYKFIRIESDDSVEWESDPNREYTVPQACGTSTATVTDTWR
T4 sequence (P53341 whole entry): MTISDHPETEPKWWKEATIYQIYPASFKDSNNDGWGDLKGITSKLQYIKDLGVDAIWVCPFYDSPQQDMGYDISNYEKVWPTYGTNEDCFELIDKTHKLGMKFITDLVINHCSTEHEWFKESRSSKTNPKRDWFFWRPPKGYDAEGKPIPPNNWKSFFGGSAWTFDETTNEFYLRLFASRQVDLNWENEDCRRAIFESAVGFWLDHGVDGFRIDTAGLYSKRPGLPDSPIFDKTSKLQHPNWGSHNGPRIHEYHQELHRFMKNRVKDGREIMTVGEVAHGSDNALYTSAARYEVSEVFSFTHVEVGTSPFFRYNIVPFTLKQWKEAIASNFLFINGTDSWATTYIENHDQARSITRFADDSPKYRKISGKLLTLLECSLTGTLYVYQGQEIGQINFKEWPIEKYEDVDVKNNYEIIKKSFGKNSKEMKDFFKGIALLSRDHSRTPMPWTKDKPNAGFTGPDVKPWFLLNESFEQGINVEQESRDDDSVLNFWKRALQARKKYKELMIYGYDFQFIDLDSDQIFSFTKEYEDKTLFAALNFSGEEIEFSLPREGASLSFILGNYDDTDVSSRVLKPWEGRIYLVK

pIC50 [9] | pIC50 [10] | pIC50 [11] | SMILES | inhibition at 800 µM [1] [%] | inhibition at 800 µM [2] [%] | inhibition at 800 µM [3] [%] | inhibition at 800 µM (α-D-glucosidase (Yeast)) [%] | % inhibition, N-acetyl-β-D-glucosaminidase (Bovine kidney) ([4]; compounds tested at 0.8 mM) [%] | pIC50 ([4]; read-out: IC50 against mammalian 6-N-acetylglucosaminidase (hexosaminidase)) | inhibition at 800 µM [5] [%] | inhibition at 800 µM [6] [%] | pIC50 [7] | inhibition at 800 µM (α-D-glucosidase (Rice); compounds tested at 0.8 mM) [%] | pIC50 (α-D-glucosidase (Rice); read-out: IC50, α-D-glucosidase (Rice)) | inhibition at 800 µM [8] [%]
 |  |  | O=C(O)[C@@H]1[C@@H](O)[C@H](O)[C@@H](O)CN1CCO [Compound T3, (2S,3R,4R,5S)-3,4,5-Trihydroxy-1-(2-hydroxyethyl)piperidine-2-carboxylic acid] | < 50 | < 50 | < 50 | < 50 | 82.0 | 4.91 | < 50 | < 50 | 4.22 | 67.2 | 3.59 | < 50
6.66 | 6.01 | 6.72 | CCCCN1C[C@H](O)[C@@H](O)[C@H](O)[C@H]1CO [Zavesca, N-butyl-DNJ, reference compound] |  |  |  |  |  |  |  |  |  |  |  | 
